Legend:
[1] = test system: cultured hamster respiratory epithelia; conditions: B. pertussis TCT; cited from earlier work
Bone marrow-derived DCs = experiment: Surface expression of MHC Class II and costimulatory molecules on DCs by immunofluorescence analysis; type: cell-based, BALB/c mice
Experimental: Bone marrow-derived DCs from BALB/c mice were cultured for 6 hours with (i) TCT (10 μg/ml) or medium alone, then stimulated with B. pertussis LPS at (ii) 10 ng/ml and (iii) 100 ng/ml for a further 12 hours and analysed for surface expression of MHC Class II and costimulatory molecules by immunofluorescence analysis with Abs specific for MHC Class II (a), CD86 (b), and ICAM-1 (c). (FIG. 5).

[2] = test system: hamster tracheal epithelial (HTE) cells; conditions: isolated cultured HTE cells; cited from earlier work
[3] = test system: KLH-specific T cell responses; experiment: Adoptive transfer of TCT-treated DCs; ex vivo lymph node T cell responses; type: in vivo, BALB/c mice
Experimental: Bone marrow-derived DCs from BALB/c mice were cultured in 2% heat inactivated normal mouse sera and 40 ng/ml recombinant GM-CSF for 12 days. DCs were harvested and cultured O/N at a concentration of 1×10^6 cells/ml. DCs were then incubated with KLH (20 μg/ml) alone, KLH (20 μg/ml) and TCT (10 μg/ml), KLH (20 μg/ml) plus Pam-3Csk (TLR2 agonist; 500 ng/ml), or with KLH (20 μg/ml) and TCT (10 μg/ml) and Pam-3Csk (500 ng/ml). After 2 hours incubation, cells were washed and injected sub-cutaneously (s.c.) into the flank of BALB/c mice (1×10^5 cells/mouse). T cell responses were assessed 14 days later from pooled local inguinal lymph node cells stimulated with antigen ex-vivo.
Lymph node cells from each treatment group were pooled and cultured in the presence of KLH (2, 10 and 50 μg/ml) or PMA/CD3 or medium, as positive and negative controls respectively. Supernatants were collected 72 h later for cytokine analysis (IFN-γ, IL-10, IL-4 and IL-5 were evaluated by specific ELISA FIG. 12). Fresh medium was added to the wells and cells were incubated overnight. At day 4, 2 μCi of ^3H thymidine was added to each well. Plates were incubated for a further 6 hours, after which cells and ^3H incorporation was determined (FIG. 12).

human NOD1 = molecular target: T1, human NOD1 (Homo sapiens, UniProt Q9Y239); conditions: cited from earlier work
T1 sequence (Q9Y239 1-953): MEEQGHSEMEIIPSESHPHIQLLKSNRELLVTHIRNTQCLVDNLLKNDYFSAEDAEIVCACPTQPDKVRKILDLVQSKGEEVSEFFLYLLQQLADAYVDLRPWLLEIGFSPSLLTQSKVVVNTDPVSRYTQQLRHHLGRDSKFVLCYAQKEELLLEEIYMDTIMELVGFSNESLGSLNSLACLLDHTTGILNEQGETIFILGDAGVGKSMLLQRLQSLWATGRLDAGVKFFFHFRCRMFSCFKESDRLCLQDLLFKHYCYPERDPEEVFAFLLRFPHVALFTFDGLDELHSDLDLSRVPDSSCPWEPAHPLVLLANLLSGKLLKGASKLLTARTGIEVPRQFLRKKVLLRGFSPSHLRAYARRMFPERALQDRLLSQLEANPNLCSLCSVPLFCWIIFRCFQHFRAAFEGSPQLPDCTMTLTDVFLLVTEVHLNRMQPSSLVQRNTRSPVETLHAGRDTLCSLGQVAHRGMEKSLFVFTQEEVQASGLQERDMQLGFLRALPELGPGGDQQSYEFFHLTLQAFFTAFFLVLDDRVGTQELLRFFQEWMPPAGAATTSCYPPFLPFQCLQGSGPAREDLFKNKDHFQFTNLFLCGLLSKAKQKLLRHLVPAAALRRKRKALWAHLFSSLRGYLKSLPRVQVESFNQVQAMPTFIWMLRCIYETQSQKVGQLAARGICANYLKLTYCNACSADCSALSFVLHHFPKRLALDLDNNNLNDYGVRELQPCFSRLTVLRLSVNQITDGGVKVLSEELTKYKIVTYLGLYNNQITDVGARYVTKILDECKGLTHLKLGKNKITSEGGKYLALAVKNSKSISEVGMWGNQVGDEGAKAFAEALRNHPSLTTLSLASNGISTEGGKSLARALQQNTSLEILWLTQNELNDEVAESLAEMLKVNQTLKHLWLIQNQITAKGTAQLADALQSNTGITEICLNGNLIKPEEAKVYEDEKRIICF

[4] = DCs treated with KLH and Pam-3Csk, also treated with TCT
[5] = KLH treated DCs also treated with TCT

CC(=O)NC1C(OC2C3COC(O3)C(NC(C)=O)C2OC(C)C(=O)NC(C)C(=O)NC(CCC(=O)NC(CCCC(N)C(=O)NC(C)C(=O)O)C(=O)O)C(=O)O)OC(CO)C(O)C1O (stereo not drawn) [TCT, N-acetylglucosaminyl-1,6-anhydro-N-acetylmuramylalanyl-γ-glutamyldiaminopimelylalanine]
ciliostasis and ciliated cell destruction [1]: causes ciliostasis, ciliated cell destruction | B. pertussis LPS induced expression of the other costimulatory molecules (CD86, ICAM-1) (Bone marrow-derived DCs; 6 hours TCT pre-treatment): did not modulate | MHC Class II expression induced with B. pertussis LPS (Bone marrow-derived DCs; LPS 10 or 100 ng/ml, 6 hours TCT pre-treatment): reduced | MHC Class II expression on DCs (Bone marrow-derived DCs; TCT (10 μg/ml) alone): did not influence | co-stimulatory molecule expression on DCs (Bone marrow-derived DCs; TCT (10 μg/ml) alone): did not influence | DNA synthesis [2]: inhibit DNA synthesis | antigen-specific IFN-gamma production, lymph node cells [3, 4]: completely abolished | antigen-specific IL-10 production, lymph node cells [3, 4]: completely abolished | KLH-specific IFN-gamma production, lymph node cells ([3]; DCs treated with TCT and KLH): No KLH-specific IFN-gamma, IL-10 and IL-4 production was detected | KLH-specific proliferation by lymph node cells ([3]; DCs treated with TCT and Pam-3Csk with KLH vs Pam-3Csk with KLH): profound impairment | antigen-specific IL-4 production, lymph node cells [3, 5]: abolished | antigen-specific IL-10 production, lymph node cells [3, 5]: abolished | proliferation by lymph node cells ([3]; KLH treated DCs also treated with TCT vs KLH treated DCs alone): almost abolished | Antigen-specific IL-5 production, LN cells ([3]; all treatment groups): not above background concentrations | NOD1 detection of TCT (human NOD1): poorly detected

From patent US20090176696A1, “Methods And Compositions For Modulating An Immune Response” (priority 2006, published 2009)
